These results are taken from PubChem BioAssay AID264 (DTP/NCI, 2004).

“And” between values parts separate entries of the source, which are not always exact repeats. Identical values can stand only once. Records with an inconclusive call do not appear.

The experiment has as its system nude mice, LX-1 lung xenograft intrarenal, tumor weight T/C. The experiment in a line: NCI In Vivo Anticancer Drug Screen. Data for tumor model Human Lung LX-1 Xenograft (intrarenal inoculation) in NU/NU Swiss (nude) mice. The settings on record: endpoint: mean tumor weight change, higher = larger tumour. The method, boiled down:
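Antitumor effect is expressed as a ratio: the mean tumor measurement of the drug-treated group relative to that of the vehicle-dosed control group.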
For orientation: Xenograft models place foreign cells or tissue in a host animal.

Setting [1] is: dose: 100.0 mg/kg/injection, schedule: Q04DX003 (sc), vehicle: saline with Tween-80.
[2] abbreviates: dose: 200.0 mg/kg/injection, schedule: Q04DX003 (sc), vehicle: saline with Tween-80.
The mark [3] stands for this setting: dose: 400.0 mg/kg/injection, schedule: Q04DX003 (sc), vehicle: saline with Tween-80.
The mark [4] stands for this setting: dose: 300.0 mg/kg/injection, schedule: Q04DX003 (sc), vehicle: saline with Tween-80.
[5] abbreviates: dose: 600.0 mg/kg/injection, schedule: Q04DX003 (sc), vehicle: saline with Tween-80.
The mark [6] stands for this setting: dose: 1200.0 mg/kg/injection, schedule: Q04DX003 (sc), vehicle: saline with Tween-80.
Where [7] appears, read: dose: 2400.0 mg/kg/injection, schedule: Q04DX003 (sc), vehicle: saline with Tween-80.
[8] abbreviates: dose: 100.0 mg/kg/injection, schedule: Q01DX010 (sc), vehicle: saline.
Setting [9] is: dose: 100.0 mg/kg/injection, schedule: Q01DX010 (sc), vehicle: saline with Tween-80.
Setting [10] is: dose: 200.0 mg/kg/injection, schedule: Q01DX010 (sc), vehicle: saline with Tween-80.
[11] abbreviates: dose: 400.0 mg/kg/injection, schedule: Q01DX010 (sc), vehicle: saline with Tween-80.
Where [12] appears, read: dose: 50.0 mg/kg/injection, schedule: Q01DX010 (sc), vehicle: saline with Tween-80.
The mark [13] stands for this setting: dose: 600.0 mg/kg/injection, schedule: Q04DX003 (sc), vehicle: water.

Take `CCOC(=O)Nc1cc2c(c(N)n1)N=C(c1ccccc1)CN2`: the T/C is 68 % of control (dose: 3.12 mg/kg/injection, schedule: Q04DX003 (sc), vehicle: saline with Tween-80); 82 % of control and 96 % of control (dose: 6.25 mg/kg/injection, schedule: Q04DX003 (sc), vehicle: saline with Tween-80); 73 % of control (dose: 12.5 mg/kg/injection, schedule: Q04DX003 (sc), vehicle: saline with Tween-80); 30 % of control and 54 % of control (dose: 25.0 mg/kg/injection, schedule: Q04DX003 (sc), vehicle: saline with Tween-80).
In the case of `Cc1ccc2c(c1)N=C(Nc1ccccc1)N=S2(C)=O` (stereo not drawn), the T/C by setting is: under setting [1], 101 % of control; under setting [2], 90 % of control; under setting [3], 97 % of control.
As to `C=C1C(C)C2C(Cc3ccccc3)NC(=O)C23C(OC(C)=O)/C=C/C(C)(O)CC(C)C/C=C/C3C1O` (stereo not drawn), the T/C reads like this: (dose: 6.25 mg/kg/injection, schedule: Q04DX003 (sc), vehicle: Klucel (hydroxypropylcellulose) (HPC)) 112 % of control; (dose: 12.5 mg/kg/injection, schedule: Q04DX003 (sc), vehicle: Klucel (hydroxypropylcellulose) (HPC)) 112 % of control.
For the compound `O=C/C(Cl)=C(/Cl)C(=O)O`, the T/C by setting is: (dose: 5.0 mg/kg/injection, schedule: Q01DX010 (sc), vehicle: saline with Tween-80) 124 % of control; (dose: 10.0 mg/kg/injection, schedule: Q01DX010 (sc), vehicle: saline with Tween-80) 210 % of control; (dose: 20.0 mg/kg/injection, schedule: Q01DX010 (sc), vehicle: saline with Tween-80) 72 % of control and 213 % of control; (dose: 40.0 mg/kg/injection, schedule: Q01DX010 (sc), vehicle: saline with Tween-80) 48 % of control and 65 % of control.
Take `O=C(NC1CCCCC1)OCc1c(COC(=O)NC2CCCCC2)c(-c2ccc(Cl)c(Cl)c2)n2c1CCC2`: the T/C by setting is: under setting [4], 88 % of control; under setting [5], 94 % of control; under setting [6], 104 % of control; under setting [7], 104 % of control.
As for `CC[C@H](CC[C@@H](C)C1CC[C@H]2[C@@H]3CC=C4C[C@@H](OP(=O)(N5CC5)N5CC5)CC[C@]4(C)[C@H]3CC[C@]12C)C(C)C` (stereo partly drawn), the T/C was 57 % of control under setting [4], 78 % of control under setting [5], 83 % of control under setting [6] and 80 % of control under setting [7].
`C=CCc1cn(C2CC(O)C(CO)O2)c(=O)[nH]c1=O` (stereo not drawn): the T/C is, setting by setting: (dose: 300.0 mg/kg/injection, schedule: Q04DX003 (sc), vehicle: saline) 91 % of control; (dose: 600.0 mg/kg/injection, schedule: Q04DX003 (sc), vehicle: saline) 82 % of control; (dose: 1200.0 mg/kg/injection, schedule: Q04DX003 (sc), vehicle: saline) 74 % of control; (dose: 2400.0 mg/kg/injection, schedule: Q04DX003 (sc), vehicle: saline) 111 % of control.
Regarding `C(COCCOCC1CO1)OCCOCC1CO1` (stereo not drawn), the T/C was 108 % of control under setting [8]; 93 % of control (dose: 200.0 mg/kg/injection, schedule: Q01DX010 (sc), vehicle: saline); 46 % of control (dose: 400.0 mg/kg/injection, schedule: Q01DX010 (sc), vehicle: saline).
On to `CCCCOC(=O)/C=C(\Br)C(=O)OCCCC`, for which the T/C was 166 % of control under setting [9], 281 % of control under setting [10] and 251 % of control under setting [11].
On to `COC(=O)Nc1cccc(-c2nc3ccc(NC(=O)OC)cc3c(=O)n2-c2ccccc2)c1`, for which the T/C is 99 % of control (dose: 25.0 mg/kg/injection, schedule: Q01DX010 (sc), vehicle: Klucel (hydroxypropylcellulose) (HPC)); 160 % of control (dose: 50.0 mg/kg/injection, schedule: Q01DX010 (sc), vehicle: Klucel (hydroxypropylcellulose) (HPC)); 93 % of control (dose: 100.0 mg/kg/injection, schedule: Q01DX010 (sc), vehicle: Klucel (hydroxypropylcellulose) (HPC)); 84 % of control (dose: 200.0 mg/kg/injection, schedule: Q01DX010 (sc), vehicle: Klucel (hydroxypropylcellulose) (HPC)).
Turning to `ClCC[N+]12CC[N+](CCCl)(CC1)C2`, the T/C is 42 % of control and 56 % of control under setting [12]; 24 % of control under setting [11]; 54 % of control under setting [13].
`CNC(=O)OCc1c(COC(=O)NC)c(-c2ccccc2)n(C)c1-c1ccccc1`: the T/C is, setting by setting: (dose: 50.0 mg/kg/injection, schedule: Q04DX003 (sc), vehicle: distilled water + Tween-80) 88 % of control; (dose: 100.0 mg/kg/injection, schedule: Q04DX003 (sc), vehicle: distilled water + Tween-80) 182 % of control; (dose: 200.0 mg/kg/injection, schedule: Q04DX003 (sc), vehicle: distilled water + Tween-80) 50 % of control; (dose: 800.0 mg/kg/injection, schedule: Q04DX003 (sc), vehicle: distilled water + Tween-80) 52 % of control; (dose: 1600.0 mg/kg/injection, schedule: Q04DX003 (sc), vehicle: distilled water + Tween-80) 57 % of control.
As for `Cc1noc(N)c1N`, the T/C by setting is: under setting [13], 106 % of control; (dose: 1200.0 mg/kg/injection, schedule: Q04DX003 (sc), vehicle: water) 94 % of control.
In the case of `OCCN1CCN(CC/C=C2/c3ccccc3Sc3ccc(Cl)cc32)CC1`, the T/C by setting is: (dose: 6.25 mg/kg/injection, schedule: Q04DX003 (sc), vehicle: saline) 78 % of control; (dose: 12.5 mg/kg/injection, schedule: Q04DX003 (sc), vehicle: saline) 68 % of control; (dose: 25.0 mg/kg/injection, schedule: Q04DX003 (sc), vehicle: saline) 52 % of control; (dose: 50.0 mg/kg/injection, schedule: Q04DX003 (sc), vehicle: saline) 43 % of control.
As for `C(CSC1=NCCN1)CSC1=NCCN1`, the T/C is, setting by setting: (dose: 50.0 mg/kg/injection, schedule: Q01DX010 (sc), vehicle: saline) 156 % of control; under setting [8], 81 % of control.
As for `Nc1ccc(C(OC(=O)c2cc3ccccc3c(Cc3c(O)c(C(=O)OC(c4ccc(N)cc4)(c4ccc(N)cc4)c4ccc(N)cc4)cc4ccccc34)c2O)(c2ccc(N)cc2)c2ccc(N)cc2)cc1`, the T/C is 87 % of control (dose: 36.0 mg/kg/injection, schedule: Q04DX003 (sc), vehicle: saline with Tween-80); 116 % of control (dose: 72.0 mg/kg/injection, schedule: Q04DX003 (sc), vehicle: saline with Tween-80); 67 % of control (dose: 144.0 mg/kg/injection, schedule: Q04DX003 (sc), vehicle: saline with Tween-80); 58 % of control (dose: 288.0 mg/kg/injection, schedule: Q04DX003 (sc), vehicle: saline with Tween-80).
Consider `Nc1nc(-c2cccc3ccccc23)cc2ccccc12`, for which the T/C is 107 % of control under setting [1]; 91 % of control under setting [2]; 94 % of control under setting [3]; 53 % of control (dose: 800.0 mg/kg/injection, schedule: Q04DX003 (sc), vehicle: saline with Tween-80).
`BrCC[Se]c1ccccc1`: the T/C under setting [12] was 92 % of control, the T/C under setting [9] was 62 % of control and the T/C under setting [10] is 55 % of control.
Regarding `Cc1ccc(C2NC(=S)N3C(c4ccc(C)cc4)NC(=S)N23)cc1` (stereo not drawn), the T/C reads like this: (dose: 300.0 mg/kg/injection, schedule: Q04DX003 (sc), vehicle: Klucel (hydroxypropylcellulose) (HPC)) 64 % of control; (dose: 600.0 mg/kg/injection, schedule: Q04DX003 (sc), vehicle: Klucel (hydroxypropylcellulose) (HPC)) 66 % of control; (dose: 1200.0 mg/kg/injection, schedule: Q04DX003 (sc), vehicle: Klucel (hydroxypropylcellulose) (HPC)) 80 % of control; (dose: 2400.0 mg/kg/injection, schedule: Q04DX003 (sc), vehicle: Klucel (hydroxypropylcellulose) (HPC)) 65 % of control.
In the case of `Cc1c(N)nc(C(CC(N)=O)NCC(N)C(N)=O)nc1C(=O)NC(C(=O)NC(C)C(O)C(C)C(=O)NC(C(=O)NCCc1nc(-c2nc(C(=O)NCCCNCCCc3ccccn3)cs2)cs1)C(C)O)C(OC1OC(CO)C(O)C(O)C1OC1OC(CO)C(O)C(OC(N)=O)C1O)c1cnc[nH]1` (stereo not drawn), the T/C reads like this: (dose: 3.0 mg/kg/injection, schedule: Q01DX010 (sc), vehicle: water) 16 % of control; (dose: 12.0 mg/kg/injection, schedule: Q01DX010 (sc), vehicle: water) -82 % of control.
